In US20160201063A1, “EPIGENETIC REGULATORS OF FRATAXIN” (RANA THERAPEUTICS, INC., priority 2013, published 2016):
Counter-ions that a name gives are not always drawn.

Assays:
FXN mRNA [1] = test: Gapmer screen in differentiated myotubes, FXN mRNA levels; type: cell-based; conditions: 4 days after transfection
From the text: Subsequently, various oligos targeting ACTL6A, EID1, HIC1, JUND, KAT2A, PRKCD, and YEATS4 were screened in differentiated myotubes for FXN mRNA levels. Measurements were taken 4 days after transfection.

FXN mRNA [2] = test: Screen of epigenetic inhibitors in GM0321 normal fibroblasts, FXN RNA levels; type: cell-based, human; conditions: for fold induction at 1 µM / fold induction at 5 µM: Homo sapiens, Fibroblast, 72 h; for fold induction at 1 µM: read-out: FXN mRNA fold change, 321B 1 uM; for fold induction at 5 µM: read-out: FXN mRNA fold change, 321B 5 uM
FXN mRNA [3] = test: Screen of library of eighty epigenetic inhibitors in GM03816 FRDA diseased fibroblasts, FXN mRNA fold change; type: cell-based, human; conditions: for fold induction at 1 µM / fold induction at 5 µM: Homo sapiens, Fibroblast, 72 h; for fold induction at 1 µM: read-out: 3816 1 uM (FXN mRNA fold change); for fold induction at 5 µM: read-out: 3816 5 uM (FXN mRNA fold change)
Procedure: FXN RNA levels are indicated on the y-axis and the inhibitors used at both 1 μM and 5 μM are shown on the x-axis.
A screen of a library of eighty epigenetic inhibitors (Cayman Chemical) was performed in GM03816 FRDA fibroblasts to identify epigenetic regulators that upregulate FXN expression.

[4] = GM0321 normal fibroblasts, 1 uM inhibitor, 3 days of treatment
[5] = GM0321 normal fibroblasts, 5 uM inhibitor, 3 days of treatment
[6] = GM03816 FRDA diseased fibroblasts, 1 uM inhibitor, 3 days of treatment
[7] = GM03816 FRDA diseased fibroblasts, 5 uM inhibitor, 3 days of treatment

Compound | FXN mRNA fold change, 321B 1 uM (FXN mRNA [2]; [4]) | FXN mRNA fold change, 321B 5 uM (FXN mRNA [2]; [5]) | 3816 1 uM (FXN mRNA fold change) (FXN mRNA [3]; [6]) | 3816 5 uM (FXN mRNA fold change) (FXN mRNA [3]; [7]) | other results
JUND-6: LNA/DNA gapmer to human JUND, SEQ ID NO 66, TGGCTCGTCCTTGAG (LNA modifications, chemistry not fully specified) | – | – | – | – | FXN mRNA level (FXN mRNA [1]): upregulation of FXN mRNA
ACTL6A-04: LNA/DNA gapmer to human ACTL6A, SEQ ID NO 4, GCCCAGTAGAACGAC (LNA modifications, chemistry not fully specified) | – | – | – | – | FXN mRNA level (FXN mRNA [1]): upregulation of FXN mRNA
KAT2A-06: LNA/DNA gapmer to human KAT2A, SEQ ID NO 36, GGCGATATACTCCTT (LNA modifications, chemistry not fully specified) | – | – | – | – | FXN mRNA level (FXN mRNA [1]): upregulation of FXN mRNA
YEATS4-9: LNA/DNA gapmer to human YEATS4, SEQ ID NO 91, AGTTTCACGACTTGC (LNA modifications, chemistry not fully specified) | – | – | – | – | FXN mRNA level (FXN mRNA [1]): upregulation of FXN mRNA
KAT2A-05: LNA/DNA gapmer to human KAT2A, SEQ ID NO 35, CATTGACCAGCTCCA (LNA modifications, chemistry not fully specified) | – | – | – | – | FXN mRNA level (FXN mRNA [1]): upregulation of FXN mRNA
YEATS4-5: LNA/DNA gapmer to human YEATS4, SEQ ID NO 87, TCGAATTCACCCCAT (LNA modifications, chemistry not fully specified) | – | – | – | – | FXN mRNA level (FXN mRNA [1]): upregulation of FXN mRNA
CN1CCc2c(c3ccccc3n2Cc2ccc(C(=O)NO)cc2)C1 [Tubastatin A] | 0.8993 | 1.038 | 0.9276 | 0.9192 | –
O=C(CCCCCCC(=O)Nc1ccc(I)cc1)NO [Oligo 4-iodo-SAHA] | 0.668 | 0.5901 | 0.6878 | 0.1302 | –
HIC1-1: LNA/DNA gapmer to human HIC1, SEQ ID NO 70, GGCCGGTGTAGATGA (LNA modifications, chemistry not fully specified) | – | – | – | – | FXN mRNA level (FXN mRNA [1]): upregulation of FXN mRNA
CCC(=O)CCCCC[C@@H]1NC(=O)[C@H]2CCCCN2C(=O)[C@H]([C@@H](C)CC)NC(=O)[C@H](Cc2cn(OC)c3ccccc23)NC1=O [Apicidin] | – | – | – | – | fold induction at 1 µM (FXN mRNA [2]): 0.119; fold induction at 5 µM (FXN mRNA [2]): 0.397; fold induction at 1 µM (FXN mRNA [3]): 0.0791; fold induction at 5 µM (FXN mRNA [3]): 0.435
Nc1nccc2c1ncn2C1C=C(CO)C(O)C1O (stereo not drawn) [3-Deazaneplanocin A] | 0.2641 | 0.1265 | 0.1514 | 0.2102 | –
Cl.N[C@@H]1C[C@H]1c1ccccc1 (racemic) [2-PCPA (hydrochloride)] | 0.7149 | 0.7888 | 1.058 | 0.8786 | –
O=C(/C=C/c1ccc(O)cc1)c1ccc(O)cc1O [Isoliquiritigenin] | – | – | – | – | fold induction at 1 µM (FXN mRNA [2]; [4]): 1.16; fold induction at 5 µM (FXN mRNA [2]; [5]): 1.29; fold induction at 1 µM (FXN mRNA [3]; [6]): 1.27; fold induction at 5 µM (FXN mRNA [3]; [7]): 0.963
CC(NC(=O)c1ccccc1/N=C/c1c(O)ccc2ccccc12)c1ccccc1 (stereo not drawn) [Sirtinol] | – | – | – | – | fold induction at 1 µM (FXN mRNA [2]; [4]): 0.81; fold induction at 5 µM (FXN mRNA [2]; [5]): 1.02; fold induction at 1 µM (FXN mRNA [3]; [6]): 1.06; fold induction at 5 µM (FXN mRNA [3]; [7]): 0.92
COc1cc2c(NC3CCN(C)CC3)nc(N3CCCN(C)CC3)nc2cc1OCCCN(C)C [UNC0224, 7-[3-(Dimethylamino)propoxy]-2-(hexahydro-4-methyl-1H-1,4-diazepin-1-yl)-6-methoxy-N-(1-methyl-4-piperidinyl)-4-quinazolinamine, reference compound] | – | – | – | – | fold induction at 1 µM (FXN mRNA [2]; [4]): 0.876; fold induction at 5 µM (FXN mRNA [2]; [5]): 0.875; fold induction at 1 µM (FXN mRNA [3]; [6]): 0.958; fold induction at 5 µM (FXN mRNA [3]; [7]): 0.656
Nc1ncnc2c1ncn2[C@@H]1O[C@H](CSCC[C@H](N)C(=O)O)[C@@H](O)[C@H]1O [S-Adenosylhomocysteine] | – | – | – | – | fold induction at 1 µM (FXN mRNA [2]; [4]): 0.975; fold induction at 5 µM (FXN mRNA [2]; [5]): 0.619; fold induction at 1 µM (FXN mRNA [3]; [6]): 1.07; fold induction at 5 µM (FXN mRNA [3]; [7]): 0.886
(3S,3′S,5aR,5aR,10bR,10′bR,11aS,11′aS)- 2,2′,3,3′,5a,5′a,6,6′-octahydro- 3,3′-bis(hydroxymethyl)-2,2′- dimethyl-[10b,10′b(11H,11′H)- bi3,11a-epidithio-11aH- pyrazino[1′,2′:1,5]pyrrolo[2,3- b]indole]-1,1′4,4′-tetrone [Chaetocin, reference compound] | 0.9084 | 0.9952 | 0.9302 | 0.7778 | –
CN(C)NC(=O)CCC(=O)O [Daminozide] | – | – | – | – | fold induction at 1 µM (FXN mRNA [2]): 1.04; fold induction at 5 µM (FXN mRNA [2]): 0.898; fold induction at 1 µM (FXN mRNA [3]): 0.824; fold induction at 5 µM (FXN mRNA [3]): 0.881

Compound | FXN mRNA fold change, 321B 1 uM (FXN mRNA [2]; [4]) | FXN mRNA fold change, 321B 5 uM (FXN mRNA [2]; [5]) | 3816 1 uM (FXN mRNA fold change) (FXN mRNA [3]; [6]) | 3816 5 uM (FXN mRNA fold change) (FXN mRNA [3]; [7]) | other results
Oc1cc(O)c2cc(O)c(-c3cc(O)c(O)c(O)c3)[o+]c2c1 [Delphinidin chloride] | – | – | – | – | fold induction at 1 µM (FXN mRNA [2]; [4]): 1.09; fold induction at 5 µM (FXN mRNA [2]; [5]): 1.04; fold induction at 1 µM (FXN mRNA [3]; [6]): 0.954; fold induction at 5 µM (FXN mRNA [3]; [7]): 0.885
COCCCn1c(N)c(C(=O)NC2CCCC2)c2nc3ccccc3nc21 [CAY10591] | 0.9828 | 1.437 | 1.311 | 1.377 | –
O=C(O)CNC(=O)C(=O)O [N-Oxalylglycine] | – | – | – | – | fold induction at 5 µM (FXN mRNA [2]; [5]): 0.68; fold induction at 1 µM (FXN mRNA [3]; [6]): 0.708; fold induction at 5 µM (FXN mRNA [3]; [7]): 1.03
O=C(O)CCNc1cc(N2CCc3ccccc3CC2)nc(-c2cccnc2)n1 [GSK-J2 (sodium salt)] | 1.063 | – | 0.9711 | 0.9938 | –
(−)-Neplanocin A | 0.8734 | 1.105 | 1.067 | 0.943 | –
Cc1ccc(C(=O)Nc2ccc(S(=O)(=O)O)c3cc(S(=O)(=O)O)cc(S(=O)(=O)O)c23)cc1NC(=O)c1cccc(NC(=O)Nc2cccc(C(=O)Nc3cc(C(=O)Nc4ccc(S(=O)(=O)O)c5cc(S(=O)(=O)O)cc(S(=O)(=O)O)c45)ccc3C)c2)c1 [Suramin] | – | – | – | – | fold induction at 5 µM (FXN mRNA [2]): 0.772; fold induction at 1 µM (FXN mRNA [3]): 0.954; fold induction at 5 µM (FXN mRNA [3]): 0.835
Nc1ccccc1NC(=O)CCCCCCC(=O)Nc1ccccc1 [CAY10433] | 1.03 | 0.7782 | 0.8309 | 0.8827 | –
Cc1ccc(NC(=O)CCCCCC(=O)Nc2ccccc2N)cc1 [Pimelic Diphenylamide 106] | 0.694 | 0.2094 | 0.7457 | 0.4858 | –
NC(=O)c1cccc(N)c1 [3-amino Benzamide] | 1.089 | 1.365 | 1.289 | 1.357 | –
CC(C)[C@H](C(=O)Nc1ccc(C(=O)NO)cc1)c1ccccc1 [(S)-HDAC-42] | – | 0.6941 | 0.2419 | 0.1894 | –
CCOC(=O)CCNc1cc(N2CCc3ccccc3CC2)nc(-c2ccccn2)n1.Cl [GSK-J4 (hydrochloride)] | 1.002 | 0.8744 | 0.927 | 0.8762 | –
O=C(NCc1ccccc1)c1c(/N=C/c2c(O)ccc3ccccc23)sc2c1CCCC2 [JGB1741] | 0.9963 | 0.7224 | 1.006 | 1.17 | –
O=C(CCCCCCC(=O)NO)NO [Suberohydroxamic Acid] | – | – | – | – | fold induction at 1 µM (FXN mRNA [2]; [4]): 0.959; fold induction at 5 µM (FXN mRNA [2]; [5]): 1.02; fold induction at 1 µM (FXN mRNA [3]; [6]): 1.18; fold induction at 5 µM (FXN mRNA [3]; [7]): 0.982
Nc1cc(F)ccc1NC(=O)c1ccc(CNC(=O)/C=C/c2cccnc2)cc1 [Chidamide] | – | – | – | – | fold induction at 1 µM (FXN mRNA [2]; [4]): 0.835; fold induction at 5 µM (FXN mRNA [2]; [5]): 0.799; fold induction at 1 µM (FXN mRNA [3]; [6]): 0.924; fold induction at 5 µM (FXN mRNA [3]; [7]): 0.968
NC(=O)[C@H](CCCN=C(N)CF)NC(=O)c1ccccc1 [F-Amidine] | 0.9152 | 0.9697 | 0.7818 | 0.6484 | –
O=C(Nc1ccc2c(O)cc(S(=O)(=O)O)cc2c1)Nc1ccc2c(O)cc(S(=O)(=O)O)cc2c1 [AMI-1] | – | 0.4073 | 0.5579 | 0.566 | –
CC(/C=C/C(=O)NO)=C\[C@@H](C)C(=O)c1ccc(N(C)C)cc1 [Trichostatin A] | 1.023 | 0.7721 | 0.9338 | 0.6921 | –
